Reference: ChEMBL document CHEMBL4673313, “Small-Molecule Inhibitors Directly Targeting KRAS as Anticancer Therapeutics” (J Med Chem, 2020)

Experiments:
[1] = tested on: GTPase KRas (Homo sapiens), P01116 [G12C]; assay: Binding affinity to human hexahistidine-tagged KRas G12C mutant (1 to 169 residues) expressed in Escherichia coli(BL21 (DE3)) assessed as rate constant for covalent modification by measuring Kobs/[I] at 10 uM by liquid chromatography-electrospray mass spectrometry analysis
A549 = assay: Antiproliferative activity against human A549 cells incubated for 3 days by CellTiter-Glo assay; format: functional, cell-based; details: A549, 72 h
GTPase KRas [2] = target: T1, GTPase KRas (Homo sapiens, UniProt P01116); assay: Inhibition of GDP-bound KRas activation (unknown origin) expressed in Escherichia coli Rosetta2 (DE3) cells assessed as reduction in SOS-catalyzed nucleotide exchange at 1 mM in presence of BODIPY-GTP by fluorescence method relative to control
GTPase KRas [3] = target: GTPase KRas (Homo sapiens, UniProt P01116, G12D); assay: Binding affinity to 15N-labelled GDP bound KRas G12D mutant ( 1 to 169 residues) (unknown origin) expressed in Escherichia coli Rosetta 2 (DE3) cells by 1H/15N- HSQC spectroscopy
DLD-1 [4] = assay: Antiproliferative activity against human DLD-1 cells harboring KRAS G13D mutant incubated for 72 hrs by CellTitreGlo assay; format: functional, cell-based; details: DLD-1, 72 h
[5] = Binding affinity to GppNHp-bound N-terminal His6-tagged KRAS4B G12D mutant (1 to 169 residues) (unknown origin) at 10 uM by 19F NMR Spectroscopy; design: species or system Homo sapiens
[6] = Binding affinity to GppNHp-bound N-terminal His6-tagged KRAS4B G12D mutant (1 to 169 residues) (unknown origin) by isothermal titration calorimetry; design: species or system Homo sapiens
[7] = Binding affinity to GppNHp-bound N-terminal His6-tagged KRAS4B G12D mutant (1 to 169 residues) (unknown origin) by microscale thermophoresis; design: species or system Homo sapiens
DLD-1 [8] = assay: Antiproliferative activity against human DLD-1 cells; format: functional, cell-based
DLD-1 [9] = assay: Antiproliferative activity against human DLD-1 cells incubated for 72 hrs by CellTitreGlo assay; format: functional, cell-based; details: DLD-1, 72 h
GTPase KRas [10] = target: T1, GTPase KRas; assay: Inhibition of KRas activation in HEK 293T-REx Flp-In cells harboring Venus-RBD-CRD/mCherry-CAAX assessed as reduction in Venus-RBD-CRD recruitment to plasma membrane by inverted confocal microscopy; design: species or system Flp-In-T-REx-293
[11] = tested on: GTPase KRas (Homo sapiens), P01116 [G12C]; assay: Covalent binding affinity to GDP-loaded hexahistidine-tagged KRas G12C mutant (1 to 169 residues) (unknown origin) expressed in Escherichia coli assessed as rate constant by liquid chromatography-electrospray mass spectrometry analysis
[12] = Oral bioavailability in BALB/c mouse at 10 mg/kg by LC-MS/MS analysis; format: ADME, organism-based; details: in vivo
NCI-H358 = assay: Antiproliferative activity against human NCI-H358 cells incubated for 14 days by alamar blue dye based assay; format: functional, cell-based; details: NCI-H358, 336 h

Compound: C=CC(=O)N1CCN(c2ncnc3c(F)c(-c4c(O)cccc4F)c(Cl)cc23)CC1 (atropisomer S)
- K [1]: 1100 M⁻¹ s⁻¹

Compound: CCCC(CCC)COC(=O)[C@@H](C)NP(=O)(OCCNC(=O)CCl)OP(=O)(O)OC[C@H]1O[C@@H](n2cnc3c(=O)[nH]c(N)nc32)[C@H](O)[C@@H]1O (stereo partly specified)
- EC50 (A549): 43.8 µM

Compound: CC[C@H](C)[C@H](N)C(=O)Nc1ccc2nc(Cc3c[nH]c4ccccc34)[nH]c2c1
- inhibition (GTPase KRas [2]): 78%

Compound: c1ccc2c(Cc3nc4ccncc4[nH]3)c[nH]c2c1
- Kd (GTPase KRas [3]): 1300 µM

Compound: COc1nc(-c2cccc3c2OCCO3)ccc1Nc1ccc(CN(C)C)cc1
- IC50 (DLD-1 [4]): 8 µM

Compound: NC1(C(=O)NCCCn2cc(-c3ccc(OC(F)(F)F)cc3)c3cc(CN4CCN(Cc5c(Cl)cccc5Cl)CC4)ccc32)CCNCC1
- Kd [5]: 9 µM
- Kd [6]: 9 µM
- Kd [7]: 9 µM
- IC50 (DLD-1 [8]): 8.8 µM

Compound: COc1cccc(-c2ccc(Nc3ccc(CN(C)C)cc3)c(OC)c2F)c1
- IC50 (DLD-1 [9]): 4.5 µM

Compound: C=CC(=O)N1CCN(c2ncnc3cc(-c4ccccc4O)c(Cl)cc23)CC1
- K [1]: 12 M⁻¹ s⁻¹

Compound: Cc1[nH]c2cc(Cl)cc(Cl)c2c1CCN
- EC50 (GTPase KRas [10]): 15.8 µM

Compound: C=CC(=O)N1CC(N2CCN(C(=O)CNc3cc(C4(C)CC4)c(Cl)cc3O)CC2)C1
- K [11]: 76 M⁻¹ s⁻¹
- K [1]: 140 M⁻¹ s⁻¹
- bioavailability [12]: > 60%

Compound: Cn1cnc(Cn2ccc3ccc(CNCc4[nH]c5ccccc5c4[C@H]4NC(=O)c5ccc(O)cc54)cc32)c1
- IC50 (NCI-H358): 6.7 µM
